Data: ChEMBL document CHEMBL3046541, “Design and synthesis of 2-chloroquinoline derivatives as non-azoles antimycotic agents” (2011)

Tests used:
Assay type in all cases: functional
[1] = system: Aspergillus flavus; assay: Antifungal activity against Aspergillus flavus MTCC 277 at 200 ug/ml after 72 hr by cup-plate method; conditions: MTCC 277, 72 h, read-out: IZ
[2] = system: Penicillium citrinum; assay: Antifungal activity against Penicillium citrinum NCIM 768 at 200 ug/ml after 72 hr by cup-plate method; conditions: NCIM 768, 72 h, read-out: IZ
[3] = system: Monascus purpureus; assay: Antifungal activity against Monascus purpureus MTCC 369 at 200 ug/ml after 72 hr by cup-plate method; conditions: MTCC 369, 72 h, read-out: IZ
[4] = system: Aspergillus niger; assay: Antifungal activity against Aspergillus niger MTCC 281 at 200 ug/ml after 72 hr by cup-plate method; conditions: MTCC 281, 72 h, read-out: IZ
[5] = system: Penicillium citrinum; assay: Antifungal activity against Penicillium citrinum NCIM 768 at 100 ug/ml after 72 hr by cup-plate method; conditions: NCIM 768, 72 h, read-out: IZ
[6] = system: Monascus purpureus; assay: Antifungal activity against Monascus purpureus MTCC 369 at 100 ug/ml after 72 hr by cup-plate method; conditions: MTCC 369, 72 h, read-out: IZ
[7] = system: Aspergillus flavus; assay: Antifungal activity against Aspergillus flavus MTCC 277 at 100 ug/ml after 72 hr by cup-plate method; conditions: MTCC 277, 72 h, read-out: IZ
[8] = system: Aspergillus niger; assay: Antifungal activity against Aspergillus niger MTCC 281 at 100 ug/ml after 72 hr by cup-plate method; conditions: MTCC 281, 72 h, read-out: IZ

Row | SMILES | zone of inhibition at 200 µg/mL [1] [mm] | zone of inhibition at 200 µg/mL [2] [mm] | zone of inhibition at 200 µg/mL [3] [mm] | zone of inhibition at 200 µg/mL [4] [mm] | zone of inhibition at 100 µg/mL [5] [mm] | zone of inhibition at 100 µg/mL [6] [mm] | zone of inhibition at 100 µg/mL [7] [mm] | zone of inhibition at 100 µg/mL [8] [mm]
1 | Clc1nc2ccccc2cc1CNc1ccccc1 | 12.4 | 8.06 | 7.7 | 12 | – | – | – | –
2 | Clc1ccc(NCc2cc3ccccc3nc2Cl)cc1 | 16 | 10.3 | 9.73 | 15.9 | – | – | – | –
3 | Cc1ccc(NCc2cc3ccccc3nc2Cl)cc1 | 12.8 | 8.06 | 7.63 | 10.9 | – | – | – | –
4 | Clc1nc2ccccc2cc1CNc1ccc(Br)cc1 | 10.5 | 9.86 | 8 | 13.7 | – | – | – | –
5 | Clc1cccc(NCc2cc3ccccc3nc2Cl)c1 | 11.6 | 8.03 | 9.63 | 13.4 | – | – | – | –
6 | COc1ccc(NCc2cc3ccccc3nc2Cl)cc1 | 13 | 7.63 | 7.66 | 10.8 | – | – | – | –
7 | Fc1ccc(NCc2cc3ccccc3nc2Cl)cc1 | 15 | 8.53 | 9.8 | 14.8 | – | – | – | –
8 | O=[N+]([O-])c1ccc(NCc2cc3ccccc3nc2Cl)cc1 | 8.33 | 6.13 | 7.7 | 8.06 | – | – | – | –
9 | Cc1cccc(NCc2cc3ccccc3nc2Cl)c1 | 10.1 | 5.73 | 7.6 | 9.53 | – | – | – | –
10 | Cc1ccccc1NCc1cc2ccccc2nc1Cl | 7.03 | 7.03 | 6.4 | 8.66 | – | – | – | –
11 | Fc1ccc(NCc2cc3ccccc3nc2Cl)cc1Cl | 19.7 | 9.73 | 11.5 | 17.8 | – | – | – | –
12 | Clc1ccccc1NCc1cc2ccccc2nc1Cl | 10.6 | 7.06 | 7.33 | 13.9 | – | – | – | –
13 | Clc1ccc(NCc2cc3ccccc3nc2Cl)cc1Cl | 18.7 | 8.76 | 9.7 | 19.6 | – | – | – | –
14 | Clc1nc2ccccc2cc1CNC1CCCCC1 | – | – | – | 6.27 | – | – | – | –
15 | CCCCNCc1cc2ccccc2nc1Cl | 8.25 | – | – | 9.47 | – | – | – | –
16 | Clc1nc2ccccc2cc1CNCc1ccccc1 | 14.5 | 9.06 | 8.4 | 15.7 | – | – | – | –
17 | CN(Cc1cc2ccccc2nc1Cl)c1ccccc1 | 14.2 | 9.74 | 8.09 | 13.2 | – | – | – | –
18 | CN(Cc1cc2ccccc2nc1Cl)c1ccc(Cl)cc1 | 17.7 | 9.85 | 10.5 | 17.1 | – | – | – | –
19 | CN(Cc1cc2ccccc2nc1Cl)c1cccc(Cl)c1 | 12.1 | 11.1 | 9.63 | 15.2 | – | – | – | –
20 | CN(Cc1cc2ccccc2nc1Cl)c1ccc(F)cc1 | 17.1 | 9.77 | 11.5 | 15.9 | – | – | – | –
21 | CN(Cc1cc2ccccc2nc1Cl)c1ccc(F)c(Cl)c1 | 20.8 | 10.4 | 13.1 | 19.4 | – | – | – | –
22 | CN(Cc1cc2ccccc2nc1Cl)c1ccc(Cl)c(Cl)c1 | 19.5 | 11.1 | 10.4 | 21.1 | – | – | – | –
23 | CN(C/C=C/C#CC(C)(C)C)Cc1cccc2ccccc12 [TERBINAFINE] | – | – | – | – | 21.8 | 26.2 | 25.1 | 24.7
